Drawing on patent US10449184B2, “Pharmaceutical compositions of therapeutically active compounds” (Agios Pharmaceuticals, Inc., priority 2014, dated 2019), this text covers Cmax, AUC(0-t) and solubility for one molecule.

≈ marks a conversion by molar mass, not a printed value.

The Cmax is the peak of the concentration-time curve. The term solubility denotes the dissolved amount per volume that the medium holds. Read a high solubility as a readily soluble substance.

The nature of data set [1]: rat pharmacokinetics study of Example 4 (oral suspensions). In kind it is in vivo, Sprague Dawley rats. Particulars: Sprague Dawley, 200 mg/kg oral suspension in vehicle, plasma. Here is the method:
The following three homogenous suspensions of Compound 1 are provided:
Form 2 in vehicle (1% d-alpha-tocopheryl polyethylene glycol 1000 succinate (TPGS):1% HPMCAS in water), an amorphous solid dispersion of 25% w/w Form 2 and 75% w/w HPMCAS-M (Solid Dispersion A) in vehicle, and an amorphous solid dispersion of 25% w/w Form 2 and 75% w/w PVAP (Solid Dispersion B) in vehicle (200 mg/kg in 10 mL/kg).
Each suspension is prepared on the day of dosing, and the Sprague Dawley rats are dosed orally. Serial plasma samples are taken at different time points following dosing. […] PK parameters, including AUC0-72 hr and Cmax, are calculated using WinNonlin software.

Data set [2] is described as follows: solubility in fasted state simulated intestinal fluid (FASSIF). In kind it is physicochemical. Particulars: pH 6.1, fassif, pH of 6.1 at 4 hours.

`N#Cc1ccnc(N2C(=O)CC[C@H]2C(=O)N(c2cncc(F)c2)[C@H](C(=O)NC2CC(F)(F)C2)c2ccccc2Cl)c1` [Form 2, (S)—N—((S)-1-(2-chlorophenyl)-2-((3,3-difluorocyclobutyl)amino)-2-oxoethyl)-1-(4-cyanopyridin-2-yl)-N-(5-fluoropyridin-3-yl)-5-oxopyrrolidine-2-carboxamide] registered a Cmax in data set [1] of 1600 ng/mL. Also, the AUC(0-t) in data set [1] (read-out: AUC0-72 hr) was 21700 ng·h/mL. In data set [2], this molecule yielded a solubility at 4 h of around 18 µg/mL (≈ 30.9 µM).
